Experimental data published in PubChem BioAssay (NCI).
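Test compounds were applied to cells in 96-well plates for 48 hours at 5 doses. The concentration for 50% growth inhibition is given as GI50. TGI: concentration producing complete growth inhibition.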

Legend:
Experiment in all cases: growth of human tumour cells (NCI), 48 h
[1] = tested on: M14 melanoma
[2] = tested on: BT-549 breast
[3] = tested on: CAKI-1 renal
[4] = tested on: HCC-2998 colon
[5] = tested on: A549 NSCLC
[6] = tested on: UACC-257 melanoma
[7] = tested on: SNB-19 CNS
[8] = tested on: MALME-3M melanoma
[9] = tested on: LOX IMVI melanoma
[10] = tested on: HL-60(TB) leukemia
[11] = tested on: UACC-62 melanoma
[12] = tested on: MDA-MB-231 breast
[13] = tested on: HT29 colon
[14] = tested on: SF-268 CNS
[15] = tested on: SW-620 colon
[16] = tested on: SNB-75 CNS
[17] = tested on: SK-OV-3 ovarian
[18] = tested on: SK-MEL-28 melanoma
[19] = tested on: HCT-116 colon
[20] = tested on: K-562 leukemia
[21] = tested on: MDA-MB-435
[22] = tested on: RXF 393 renal
[23] = tested on: OVCAR-8 ovarian
[24] = tested on: OVCAR-3 ovarian
[25] = tested on: COLO 205 colon
[26] = tested on: KM12 colon
[27] = tested on: SN12C renal
[28] = tested on: OVCAR-5 ovarian
[29] = tested on: A498 renal
[30] = tested on: HOP-62 NSCLC
[31] = tested on: MOLT-4 leukemia
[32] = tested on: IGROV1 ovarian
[33] = tested on: HOP-92 NSCLC
[34] = tested on: NCI-H460 lung
[35] = tested on: SF-539 CNS
[36] = tested on: U251 CNS
[37] = tested on: NCI-H226 lung
[38] = tested on: NCI-H23 lung
[39] = tested on: 786-0 renal
[40] = tested on: SR leukemia
[41] = tested on: HS 578T breast
[42] = tested on: PC-3 prostate
[43] = tested on: TK-10 renal
[44] = tested on: CCRF-CEM leukemia
[45] = tested on: ACHN renal
[46] = tested on: T-47D breast
[47] = tested on: DU-145 prostate
[48] = tested on: MCF7 breast
[49] = tested on: NCI-H522 lung
[50] = tested on: NCI/ADR-RES ovarian
[51] = tested on: SK-MEL-5 melanoma
[52] = tested on: OVCAR-4 ovarian
[53] = tested on: UO-31 renal
[54] = tested on: HCT-15 colon
[55] = tested on: EKVX NSCLC
[56] = tested on: SF-295 CNS
[57] = tested on: RPMI-8226 leukemia
[58] = tested on: SK-MEL-2 melanoma

Work on `CC1(C)CN(c2cc(C(F)(F)F)cc3cncn23)CCC12NC(=O)NC2=O` (stereo unspecified) yielded a GI50 [1] of 33.4 µM, a TGI [1] of over 100 µM and a GI50 [2] of 23.2 µM. For the same compound, the TGI [2] was over 100 µM, the GI50 [3] was 19.2 µM and the TGI [3] was 92 µM. The GI50 [4] was 72.5 µM, the TGI [4] was over 100 µM and the GI50 [5] was 38 µM. For the same compound, the TGI [5] was over 100 µM, the GI50 [6] was 52.7 µM and the TGI [6] was over 100 µM. For the same compound, the GI50 [7] was 46.8 µM, the TGI [7] was over 100 µM and the GI50 [8] was 42.3 µM. For the same compound, the TGI [8] was over 100 µM, the GI50 [9] was 30.1 µM and the TGI [9] was over 100 µM. For the same compound, the GI50 [10] was 22 µM, the TGI [10] was 48.9 µM and the GI50 [11] was 27.7 µM. It also gave a TGI [11] of over 100 µM, a GI50 [12] of 29.2 µM and a TGI [12] of over 100 µM. The GI50 [13] was 50.9 µM, the TGI [13] was over 100 µM and the GI50 [14] was 38.7 µM. For the same compound, the TGI [14] was over 100 µM, the GI50 [15] was 52.6 µM and the TGI [15] was over 100 µM. For the same compound, the GI50 [16] was 16.3 µM, the TGI [16] was 68.5 µM and the GI50 [17] was 36.9 µM. The TGI [17] was over 100 µM, the GI50 [18] was 49.9 µM and the TGI [18] was over 100 µM. For the same compound, the GI50 [19] was 26.3 µM, the TGI [19] was over 100 µM and the GI50 [20] was 40.9 µM. For the same compound, the TGI [20] was over 100 µM, the GI50 [21] was 42.2 µM and the TGI [21] was over 100 µM. The GI50 [22] was 17.5 µM, the TGI [22] was 61.1 µM and the GI50 [23] was 36 µM. It also gave a TGI [23] of over 100 µM, a GI50 [24] of 38.5 µM and a TGI [24] of over 100 µM. The GI50 [25] was 41.9 µM, the TGI [25] was over 100 µM and the GI50 [26] was 45.1 µM. The TGI [26] was over 100 µM, the GI50 [27] was 36.2 µM and the TGI [27] was over 100 µM. For the same compound, the GI50 [28] was 66.1 µM, the TGI [28] was over 100 µM and the GI50 [29] was 16.8 µM. It also gave a TGI [29] of 55.3 µM, a GI50 [30] of 40.3 µM and a TGI [30] of over 100 µM. It also gave a GI50 [31] of 24.3 µM, a TGI [31] of over 100 µM and a GI50 [32] of 30.5 µM. For the same compound, the TGI [32] was over 100 µM, the GI50 [33] was 20.1 µM and the TGI [33] was 86.5 µM. The GI50 [34] was 40.5 µM, the TGI [34] was over 100 µM and the GI50 [35] was 42.5 µM. For the same compound, the TGI [35] was over 100 µM, the GI50 [36] was 37.5 µM and the TGI [36] was over 100 µM. For the same compound, the GI50 [37] was 33.5 µM, the TGI [37] was over 100 µM and the GI50 [38] was 35.5 µM. The TGI [38] was over 100 µM, the GI50 [39] was 32.8 µM and the TGI [39] was over 100 µM. For the same compound, the GI50 [40] was 48.5 µM, the TGI [40] was over 100 µM and the GI50 [41] was 21.1 µM. It also gave a TGI [41] of 90.1 µM, a GI50 [42] of 24.4 µM and a TGI [42] of over 100 µM. For the same compound, the GI50 [43] was 37.8 µM, the TGI [43] was over 100 µM and the GI50 [44] was 35.6 µM. It also gave a TGI [44] of over 100 µM, a GI50 [45] of 33.7 µM and a TGI [45] of over 100 µM. It also gave a GI50 [46] of 21.4 µM, a TGI [46] of over 100 µM and a GI50 [47] of 56.2 µM. For the same compound, the TGI [47] was over 100 µM, the GI50 [48] was 24.2 µM and the TGI [48] was over 100 µM. It also gave a GI50 [49] of 28.9 µM, a TGI [49] of over 100 µM and a GI50 [50] of 67.5 µM. For the same compound, the TGI [50] was over 100 µM, the GI50 [51] was 18.1 µM and the TGI [51] was 35.4 µM. The GI50 [52] was 31.6 µM, the TGI [52] was over 100 µM and the GI50 [53] was 21.1 µM. For the same compound, the TGI [53] was 83.7 µM, the GI50 [54] was 32.4 µM and the TGI [54] was over 100 µM. For the same compound, the GI50 [55] was 4.33 µM, the TGI [55] was 40.6 µM and the GI50 [56] was 30.3 µM. The TGI [56] was over 100 µM, the GI50 [57] was 30.5 µM and the TGI [57] was over 100 µM. It also gave a GI50 [58] of 32.4 µM and a TGI [58] of over 100 µM.
